Measurements: patent US11891371B2, “Piperonylic acid derivative and preparation and application thereof” (SHENYANG SINOCHEM AGROCHEMICALS R&D CO., LTD., priority 2017, dated 2024)
Where two headings read alike, the source gives them in different places.

Tests used:
adult spider mite = assay: Determination of acaricidal activity against adult spider mite (bean leaf spray, 72 h mortality); assay type: in vivo; conditions: after 72 hours
Description: (§1) According to the solubility of test compounds, the compounds are dissolved in acetone or dimethyl sulfoxide, and then diluted with 0.1% aqueous solution of Tween 80 to form a required concentration of 50 ml test liquid. The content of the acetone or the dimethyl sulfoxide in the total solution is not more than 10%.
The adult spider mites were put into two true leaves of bean plants. After the number of mites was investigated, the solution of certain concentrations of test compounds was sprayed by using a handheld Airbrush. Three replicates were set for each treatment. Then the leaves were maintained in a standard observation room. After 72 hours, the number of surviving mites was observed, and the mortality rate was calculated.

armyworm = assay: Determination of activity against armyworm (corn leaf dip, third instar, 72 h mortality); assay type: in vivo; conditions: foliar; for mortality at 0.1 µg/mL: read-out: Mortality rate (%) 0.1 mg/L
Description: as §1, with “liquid,” for “liquid.”
The middle leaves of fresh corns were cut into small sections of 3 cm, and dipped into a solution of the required concentration of test compounds for 10 seconds. After dried in shade, the middle leaves were placed in a 9 cm diameter petri dish provided with filter paper. Fourteen regular healthy test insects (third instar) were put into the leaves. Four replicates were set for each treatment. The pure water treatment was set as control check. The treated discs were placed in a chamber of is 24° C., 60%-70% relative humidity and day light. After 72 hours, the number of surviving insects was investigated, and the mortality rate was calculated.

diamondback moth = assay: Determination of activity against diamondback moth (cabbage leaf disc dip, second instar, 72 h mortality); assay type: in vivo; conditions: Plutella xylostella, foliar, 1 mg/L, read-out: mortality rates against diamondback moth
Description: as §1, with “liquid,” for “liquid.”
The leaves of cabbage grown in greenhouse were selected, removed the surface waxy layers, punched into circular leaf discs with a diameter of 2 cm by using a puncher, and dipped into a solution of the required concentration of test compounds for 10 seconds. After dried in shade, the circular leaf discs were placed in a 9 cm diameter petri dish provided with filter paper. Ten regular healthy test insects (second instar) were put into the leaf discs. Four replicates were set for each treatment. The pure water treatment was set as control check. The treated discs were placed in a chamber of 24° C., 60%-70% relative humidity and day light. After 72 hours, the number of surviving insects was investigated, and the mortality rate was calculated.

rice leaf folder = assay: Determination of activity against rice leaf folder in field trial (foliar spray, 15 days mortality); assay type: in vivo; conditions: after 15 days
Description: A certain concentration of test compounds was sprayed on the leaf surfaces in the peak of the hatching period of the rice leaf folders, with a spray volume of 450 L per hectare. The area of a rice plot was 32 square meters. Three replicates were set for each treatment. After 15 days, the number of surviving rice leaf folders was investigated, and the mortality rate was calculated. See Table 3 for parallel determination results of activity of compounds I-8 and KC2 against rice leaf folder.

beet armyworm = assay: Determination of activity against beet armyworm (cabbage leaf disc spray, third instar, 96 h mortality); assay type: in vivo; conditions: after 96 hours
Description: as §1, with “liquid,” for “liquid.”
The cabbage leaves were punched into circular leaf discs with a diameter of 1 cm by using a puncher. A certain concentration of test compound was sprayed on both sides of each leaf disc at a spray volume of 0.5 ml by a handheld Airbrush. After the leaf discs were dried in shade, 12 test insects (third instar) were put into the leaf discs. Three replicates were set for each treatment. The pure water treatment was set as control check. The treated discs were placed in a chamber of 24° C., 60%-70% relative humidity and day light. After 96 hours, the number of surviving insects was investigated, and the mortality rate was calculated. See Table 2 for parallel determination results of activity of compounds 1-8 and KC2 (compound 3-1 in U.S. Pat. No. 8,853,440B2) against beet armyworm.

housefly larva = assay: Determination of activity against housefly larva (feed poisoning method, third instar, 72 h mortality); assay type: in vivo; conditions: after 72 hours
Description: Third instar housefly larvae were tested by a feed poisoning method. 1000 mg/L, of acetone solution of the test compounds was diluted into a required concentration of test liquid by using a certain concentration of milk powder emulsion according to a test design dose. The test liquid was uniformly added to a 6 cm diameter petri dish provided with filter paper by using a pipette, with 1 ml per dish. The third instar housefly larvae were put into the petri dish. Three replicates were set for each treatment. Then the petri dishes were maintained in a standard observation room. After 72 hours, the number of surviving housefly larvae was investigated, and the mortality rate was calculated. See Table 5 for parallel determination results of activity of compounds I-51 and KC2 against housefly larva.

Plutella xylostella = conditions: 100 ppm; disclosed in WO2005073165A1, US2007275980A1, US20140206727A1; cited from earlier work
Spodoptera litura = conditions: 100 ppm; disclosed in WO2005073165A1, US2007275980A1, US20140206727A1; cited from earlier work
green peach aphid = assay: Determination of activity against green peach aphid (cabbage leaf spray, 48 h mortality); assay type: in vivo; conditions: Myzus persicae, 10 mg/L, read-out: mortality rates against green peach aphid
Description: as §1, with “liquid,” for “liquid.”
A layer of filter paper was covered on the bottom of the 6 cm diameter petri dish. To the petri dish, a proper amount of tap water was added dropwise for moisture retention. Cabbage leaves, on which 15-30 aphids exist, with a suitable size (about 3 cm in diameter) were cut from the cabbage plants breeding peach aphids. After winged aphids and the aphids on the front surface of the leaves were removed, the leaves were placed in the petri dish in a manner of backing on to the petri dish, and sprayed with a handheld Airbrush, with a pressure of 10 psi (about 0.7 kg/cm^2) and a spray volume of 0.5 ml, Three replicates were set for each treatment. After treatment, the cabbage leaves were placed in a standard observation room. After 48 hours, the number of surviving aphids was investigated, and the mortality rate was calculated.

[1] = 0.1 mg/L, armyworm, 72 hours, parallel determination
[2] = 0.3 mg/L, armyworm, 72 hours, parallel determination, read-out: Mortality rate (%) 0.3 mg/L
[3] = 0.3 mg/L, 72 hours, read-out: mortality rates against armyworm

O=C(Nc1cccc(C(=O)Nc2c(Br)cc(C(F)(C(F)(F)F)C(F)(F)F)cc2Br)c1F)c1ccccc1 [KC3]
Mortality rate (%) (adult spider mite; 10 mg/L): 0%
Mortality rate (%) (adult spider mite; 100 mg/L): 0%
Mortality rate (%) (adult spider mite; 600 mg/L): 0%
mortality at 0.1 µg/mL (armyworm; [1]): 28.6%
mortality at 0.3 µg/mL (armyworm; [2]): 64.3%

CN(C(=O)c1ccc2c(c1)OC(F)(F)O2)c1cccc(C(=O)Nc2c(Br)cc(C(F)(C(F)(F)F)C(F)(F)F)cc2I)c1F [Compound I-48, N-(2-bromo-6-iodo-4-perfluoroisopropylphenyl)-2-fluoro-3-(N-methyl-2,2-difluoro-1,3-benzodioxole-5-carboxamido)benzamide]
mortality at 1 µg/mL (diamondback moth): > 90%
mortality at 0.3 µg/mL (armyworm; [3]): > 90%

O=C(Nc1cccc(C(=O)Nc2c(Br)cccc2Br)c1F)c1ccc2c(c1)OC(F)(F)O2 [Compound C2]
Mortality rate (%) (adult spider mite; 10 mg/L): 0%
Mortality rate (%) (adult spider mite; 100 mg/L): 0%
Mortality rate (%) (adult spider mite; 600 mg/L): 0%

CN(C(=O)c1ccc2c(c1)OC(F)(F)O2)c1cccc(C(=O)Nc2c(Br)cc(C(F)(C(F)(F)F)C(F)(F)F)cc2C(F)(F)F)c1F [Compound I-45, N-(2-bromo-4-heptafluoroisopropyl-6-trifluoromethylphenyl)-2-fluoro-3-(N-methyl-2,2-difluoro-1,3-benzodioxole-5-carboxamido) Benzamide]
mortality at 1 µg/mL (diamondback moth): > 90%
mortality at 0.3 µg/mL (armyworm; [3]): > 90%

CN(C(=O)c1ccccc1)c1cccc(C(=O)Nc2c(Br)cc(C(F)(C(F)(F)F)C(F)(F)F)cc2C(F)(F)F)c1F [KC2, Broflanilide, reference compound]
Mortality rate (%) (adult spider mite; 10 mg/L): 0%
Mortality rate (%) (adult spider mite; 100 mg/L): 0%
Mortality rate (%) (adult spider mite; 600 mg/L): 0%
Mortality rate (%) (rice leaf folder; 30 g/ha): 79%
Mortality rate (%) (rice leaf folder; 45 g/ha): 82%
Mortality rate (%) (beet armyworm; 0.2 mg/L): 66.7%
Mortality rate (%) (beet armyworm; 1 mg/L): 83.3%
Mortality rate (%) (housefly larva; 1 mg/L): 50%
Mortality rate (%) (housefly larva; 3 mg/L): 69.6%
Mortality rate (%) (housefly larva; 10 mg/L): 100%

Cc1cc(C(F)(C(F)(F)F)C(F)(F)F)cc(C)c1NC(=O)c1cccc(NC(=O)c2ccc3c(c2)OC(F)(F)O3)c1 [KC1]
mortality rates against Plutella xylostella (Plutella xylostella): ≥ 70%
mortality rates against Spodoptera litura (Spodoptera litura): ≥ 70%
Mortality rate (%) (adult spider mite; 10 mg/L): 0%
Mortality rate (%) (adult spider mite; 100 mg/L): 0%
Mortality rate (%) (adult spider mite; 600 mg/L): 0%
mortality at 0.1 µg/mL (armyworm; 72 h): 0%
mortality at 0.3 µg/mL (armyworm; 72 h, read-out: Mortality rate (%) 0.3 mg/L): 0%

O=C(Nc1cccc(C(=O)Nc2c(Br)cc(C(F)(C(F)(F)F)C(F)(F)F)cc2C(F)(F)F)c1F)c1ccc2c(c1)OC(F)(F)O2 [Compound I-2]
mortality at 1 µg/mL (diamondback moth): > 90%
mortality at 0.3 µg/mL (armyworm; [3]): > 90%

O=C(Nc1cccc(C(=O)Nc2ccc(C(F)(C(F)(F)F)C(F)(F)F)cc2)c1F)c1ccc2c(c1)OC(F)(F)O2 [Compound C1]
Mortality rate (%) (adult spider mite; 10 mg/L): 0%
Mortality rate (%) (adult spider mite; 100 mg/L): 0%
Mortality rate (%) (adult spider mite; 600 mg/L): 0%

CN(C(=O)c1ccc2c(c1)OC(F)(F)O2)c1cccc(C(=O)Nc2c(I)cc(C(F)(C(F)(F)F)C(F)(F)F)cc2I)c1F [Compound I-44]
mortality at 1 µg/mL (diamondback moth): > 90%
mortality at 0.3 µg/mL (armyworm; [3]): > 90%

O=C(Nc1cccc(C(=O)Nc2c(Br)cc(C(F)(C(F)(F)F)C(F)(F)F)cc2Br)c1F)c1ccc2c(c1)OC(F)(F)O2 [Compound I-8]
mortality at 10 µg/mL (green peach aphid): > 80%
mortality at 1 µg/mL (diamondback moth): > 90%
Mortality rate (%) (adult spider mite; 10 mg/L): 93.3%
Mortality rate (%) (adult spider mite; 100 mg/L): 100%
Mortality rate (%) (adult spider mite; 600 mg/L): 100%
Mortality rate (%) (rice leaf folder; 30 g/ha): 83%
Mortality rate (%) (rice leaf folder; 45 g/ha): 85%
Mortality rate (%) (beet armyworm; 0.2 mg/L): 83.3%
Mortality rate (%) (beet armyworm; 1 mg/L): 91.7%
mortality at 0.1 µg/mL (armyworm; [1]): 100%
mortality at 0.3 µg/mL (armyworm; [3]): > 90%
mortality at 0.3 µg/mL (armyworm; [2]): 100%

O=C(Nc1cccc(C(=O)Nc2c(Br)cc(C(F)(C(F)(F)F)C(F)(F)F)cc2I)c1F)c1ccc2c(c1)OC(F)(F)O2 [Compound I-5, N-(2-bromo-6-iodo-4-perfluoroisopropylphenyl)-3-(2,2-difluoro-1,3-benzodioxole-5-carboxamido)-2-fluorobenzamide]
mortality at 1 µg/mL (diamondback moth): > 90%
mortality at 0.3 µg/mL (armyworm; [3]): > 90%

CN(C(=O)c1ccc2c(c1)OC(F)(F)O2)c1cccc(C(=O)Nc2c(Br)cc(C(F)(C(F)(F)F)C(F)(F)F)cc2Br)c1F [Compound I-51, N-(2,6-dibromide-4-heptafluoroisopropylphenyl)-2-fluoro-3-(N-methyl-2,2-difluoro-1,3-benzodioxole-5-carboxamido)benzamide]
mortality at 10 µg/mL (green peach aphid): > 80%
mortality at 1 µg/mL (diamondback moth): > 90%
Mortality rate (%) (housefly larva; 1 mg/L): 75%
Mortality rate (%) (housefly larva; 3 mg/L): 90.5%
Mortality rate (%) (housefly larva; 10 mg/L): 100%
mortality at 0.1 µg/mL (armyworm; [1]): 85.7%
mortality at 0.3 µg/mL (armyworm; [3]): > 90%
mortality at 0.3 µg/mL (armyworm; [2]): 100%
